# Source: ChEMBL document CHEMBL1201861, “Genomics of Drug Sensitity in Cancer screening data, Wellcome Trust Sanger Institute”
# pIC50: −log10 of the molar value.
# Tests used:
# H-EMC-SS = assay: cells; assay type: functional, cell-based; conditions: Homo sapiens
# Description: SANGER: Inhibition of human H-EMC-SS cell growth in a cell viability assay.
# CHP-134 = assay: SANGER: Inhibition of human CHP-134 cell growth in a cell viability assay.; assay type: functional, cell-based
# LU-135 = assay: cells; assay type: functional, cell-based; conditions: Homo sapiens
# Description: SANGER: Inhibition of human LU-135 cell growth in a cell viability assay.
# ECC10 = assay: cells; assay type: functional, cell-based; conditions: Homo sapiens;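 note: growth inhibition of ECC10 cells, read out by a cell viability assay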
# Description: SANGER: Inhibition of human ECC10 cell growth in a cell viability assay.
# H9 = assay: cells; assay type: functional, cell-based; conditions: Homo sapiens
# Description: SANGER: Inhibition of human H9 cell growth in a cell viability assay.
# D-423MG = assay: cells; assay type: functional, cell-based; conditions: Homo sapiens
# Description: SANGER: Inhibition of human D-423MG cell growth in a cell viability assay.
# SJRH30 = assay: cells; assay type: functional, cell-based; conditions: Homo sapiens;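 note: growth inhibition of human SJRH30 cells, read out with a cell viability assay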
# Description: SANGER: Inhibition of human SJRH30 cell growth in a cell viability assay.
# NBsusSR = assay: cells; assay type: functional, cell-based; conditions: Homo sapiens;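 note: growth inhibition of the human cell line, read out with a cell viability assay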
# Description: SANGER: Inhibition of human NBsusSR cell growth in a cell viability assay.
# BALL-1 = assay: cells; assay type: functional, cell-based; conditions: Homo sapiens;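 note: growth inhibition of BALL-1 cells, read out with a cell viability assay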
# Description: SANGER: Inhibition of human BALL-1 cell growth in a cell viability assay.
# NCI-H630 = assay: cells; assay type: functional, cell-based, Homo sapiens; conditions: Homo sapiens, NCI-H630;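 note: growth inhibition of NCI-H630 cells, read out with a cell viability assay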
# Description: SANGER: Inhibition of human NCI-H630 cell growth in a cell viability assay.
# NCI-H2009 = assay: cells; assay type: functional, cell-based, Homo sapiens; conditions: Homo sapiens, NCI-H2009;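 note: cell viability assay measuring inhibition of NCI-H2009 cell growth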
# Description: SANGER: Inhibition of human NCI-H2009 cell growth in a cell viability assay.
# PLC-PRF-5 = assay: cells; assay type: functional, cell-based; conditions: Homo sapiens;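 note: growth inhibition of human PLC-PRF-5 cells, read out with a viability assay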
# Description: SANGER: Inhibition of human PLC-PRF-5 cell growth in a cell viability assay.
# COLO 205 = assay: cells; assay type: functional, cell-based; conditions: Homo sapiens
# Description: SANGER: Inhibition of human COLO-205 cell growth in a cell viability assay.
# SNU-16 = assay: cells; assay type: functional, cell-based; conditions: Homo sapiens;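 note: growth inhibition of human SNU-16 cells, determined with a cell viability readout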
# Description: SANGER: Inhibition of human NCI-SNU-16 cell growth in a cell viability assay.
# EFE-184 = assay: cells; assay type: functional, cell-based; conditions: Homo sapiens
# Description: SANGER: Inhibition of human EFE-184 cell growth in a cell viability assay.
# COR-L279 = assay: SANGER: Inhibition of human COR-L279 cell growth in a cell viability assay.; assay type: functional, cell-based
# DG-75 = assay: cells; assay type: functional, cell-based; conditions: Homo sapiens;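 note: growth inhibition of DG-75 cells, read out with a cell viability assay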
# Description: SANGER: Inhibition of human DG-75 cell growth in a cell viability assay.
# NCI-H1618 = assay: cells; assay type: functional, cell-based; conditions: Homo sapiens;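 note: growth inhibition of human NCI-H1618 cells, measured by a cell viability assay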
# Description: SANGER: Inhibition of human NCI-H1618 cell growth in a cell viability assay.
# TT = assay: cells; assay type: functional, cell-based; conditions: Homo sapiens
# Description: SANGER: Inhibition of human TT cell growth in a cell viability assay.
# C-4-II = assay: SANGER: Inhibition of human C-4-II cell growth in a cell viability assay.; assay type: functional, cell-based
# DV-90 = assay: cells; assay type: functional, cell-based; conditions: Homo sapiens;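 note: Read-out is a viability assay, with IC50 reflecting the drop in DV-90 cell growth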
# Description: SANGER: Inhibition of human DV-90 cell growth in a cell viability assay.
# MFE-296 = assay: SANGER: Inhibition of human MFE-296 cell growth in a cell viability assay.; assay type: functional, cell-based
# DMS-53 = assay: cells; assay type: functional, cell-based, Homo sapiens; conditions: Homo sapiens, DMS-53;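 note: cell viability assay measuring growth inhibition of human DMS-53 cells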
# Description: SANGER: Inhibition of human DMS-53 cell growth in a cell viability assay.
# RT-4 = assay: SANGER: Inhibition of human RT4 cell growth in a cell viability assay.; assay type: functional, cell-based; conditions: Homo sapiens, RT-4
# MDA-MB-468 = assay: cells; assay type: functional, cell-based; conditions: Homo sapiens
# Description: SANGER: Inhibition of human MDA-MB-468 cell growth in a cell viability assay.
# NCI-H64 = assay: cells; assay type: functional, cell-based; conditions: Homo sapiens;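 note: growth inhibition of NCI-H64 cells, read out with a cell viability assay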
# Description: SANGER: Inhibition of human NCI-H64 cell growth in a cell viability assay.
# MES-SA = assay: cells; assay type: functional, cell-based, Homo sapiens; conditions: Homo sapiens, MES-SA;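 note: growth inhibition of human MES-SA cells, read out with a cell viability assay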
# Description: SANGER: Inhibition of human MES-SA cell growth in a cell viability assay.
# MC-CAR = assay: cells; assay type: functional, cell-based; conditions: Homo sapiens;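 note: growth inhibition of the human MC-CAR cell line, read out by a cell viability assay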
# Description: SANGER: Inhibition of human MC-CAR cell growth in a cell viability assay.
# LC4-1 = assay: cells; assay type: functional, cell-based; conditions: Homo sapiens;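 note: growth inhibition of LC4-1 cells, read out with a cell viability assay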
# Description: SANGER: Inhibition of human LC4-1 cell growth in a cell viability assay.
# Caov-3 cell line = assay: cells; assay type: functional, cell-based; conditions: Homo sapiens;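 note: cell growth inhibition read out by a viability assay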
# Description: SANGER: Inhibition of human Caov-3 cell growth in a cell viability assay.
# SIMA = assay: cells; assay type: functional, cell-based, Homo sapiens; conditions: Homo sapiens, SIMA;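 note: growth inhibition of SIMA cells, measured with a cell viability readout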
# Description: SANGER: Inhibition of human SIMA cell growth in a cell viability assay.
# HSC-4 = assay: cells; assay type: functional, cell-based, Homo sapiens; conditions: Homo sapiens, HSC-4;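 note: growth inhibition of human HSC-4 cells, read out with a cell viability assay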
# Description: SANGER: Inhibition of human HSC-4 cell growth in a cell viability assay.
# TUR = assay: cells; assay type: functional, cell-based; conditions: Homo sapiens;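 note: growth inhibition of human TUR cells, read out with a cell viability assay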
# Description: SANGER: Inhibition of human TUR cell growth in a cell viability assay.
# IST-SL2 = assay: cells; assay type: functional, cell-based; conditions: Homo sapiens;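 note: growth inhibition of human IST-SL2 cells, read out by a cell viability assay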
# Description: SANGER: Inhibition of human IST-SL2 cell growth in a cell viability assay.
# MDA-MB-134-VI = assay: cells; assay type: functional, cell-based; conditions: Homo sapiens
# Description: SANGER: Inhibition of human MDA-MB-134-VI cell growth in a cell viability assay.
# BOKU = assay: cells; assay type: functional, cell-based; conditions: Homo sapiens;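 note: growth inhibition of the human BOKU cell line, read out by a cell viability assay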
# Description: SANGER: Inhibition of human BOKU cell growth in a cell viability assay.
# NCI-H889 = assay: cells; assay type: functional, cell-based; conditions: Homo sapiens;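 note: cell growth inhibition of the cell line, read out with a viability assay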
# Description: SANGER: Inhibition of human NCI-H889 cell growth in a cell viability assay.
# TE-15 = assay: cells; assay type: functional, cell-based; conditions: Homo sapiens;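 note: cell viability readout of growth inhibition in TE-15 cells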
# Description: SANGER: Inhibition of human TE-15 cell growth in a cell viability assay.
# ST486 = assay: SANGER: Inhibition of human ST486 cell growth in a cell viability assay.; assay type: functional, cell-based
# NCI-H838 = assay: cells; assay type: functional, cell-based; conditions: Homo sapiens;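 note: growth inhibition of human NCI-H838 cells, read out by a cell viability assay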
# Description: SANGER: Inhibition of human NCI-H838 cell growth in a cell viability assay.
# CHP-126 = assay: cells; assay type: functional, cell-based; conditions: Homo sapiens
# Description: SANGER: Inhibition of human CHP-126 cell growth in a cell viability assay.
# IPC-298 = assay: SANGER: Inhibition of human IPC-298 cell growth in a cell viability assay.; assay type: functional, cell-based
# LB647-SCLC = assay: cells; assay type: functional, cell-based; conditions: Homo sapiens;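 note: cell growth inhibition, read out by a viability assay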
# Description: SANGER: Inhibition of human LB647-SCLC cell growth in a cell viability assay.
# SCC-3 = assay: cells; assay type: functional, cell-based; conditions: Homo sapiens;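 note: cell viability assay measuring inhibition of SCC-3 cell growth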
# Description: SANGER: Inhibition of human SCC-3 cell growth in a cell viability assay.
# SR = assay: cells; assay type: functional, cell-based; conditions: Homo sapiens
# Description: SANGER: Inhibition of human SR cell growth in a cell viability assay.
# NCI-H322M = assay: cells; assay type: functional, cell-based; conditions: Homo sapiens;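 note: cell viability assay measuring inhibition of growth of human NCI-H322M cells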
# Description: SANGER: Inhibition of human NCI-H322M cell growth in a cell viability assay.
# NCI-H1734 = assay: cells; assay type: functional, cell-based; conditions: Homo sapiens;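 note: growth inhibition of human NCI-H1734 cells, read out with a cell viability assay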
# Description: SANGER: Inhibition of human NCI-H1734 cell growth in a cell viability assay.
# NCI-H2171 = assay: cells; assay type: functional, cell-based; conditions: Homo sapiens;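 note: growth inhibition of human NCI-H2171 cells, read out by a cell viability assay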
# Description: SANGER: Inhibition of human NCI-H2171 cell growth in a cell viability assay.
# SIG-M5 = assay: cells; assay type: functional, cell-based; conditions: Homo sapiens;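 note: cell viability assay read-out, measuring how strongly growth of cultured human SIG-M5 cells is inhibited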
# Description: SANGER: Inhibition of human SIG-M5 cell growth in a cell viability assay.
# EW-7 = assay: SANGER: Inhibition of human EW-7 cell growth in a cell viability assay.; assay type: functional, cell-based; conditions: Homo sapiens, EW-7
# SNG-M = assay: cells; assay type: functional, cell-based; conditions: Homo sapiens
# Description: SANGER: Inhibition of human SNG-M cell growth in a cell viability assay.
# LOUCY = assay: cells; assay type: functional, cell-based; conditions: Homo sapiens;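 note: growth inhibition of human LOUCY cells, read out with a cell viability assay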
# Description: SANGER: Inhibition of human LOUCY cell growth in a cell viability assay.
# CCF-STTG1 = assay: cells; assay type: functional, cell-based; conditions: Homo sapiens;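 note: growth inhibition of human CCF-STTG1 cells, determined with a cell viability read-out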
# Description: SANGER: Inhibition of human CCF-STTG1 cell growth in a cell viability assay.
# SK-CO-1 = assay: cells; assay type: functional, cell-based; conditions: Homo sapiens;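 note: growth inhibition of SK-CO-1 cells, determined by a viability readout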
# Description: SANGER: Inhibition of human SK-CO-1 cell growth in a cell viability assay.
# BC1 cell line = assay: SANGER: Inhibition of human BC-1 cell growth in a cell viability assay.; assay type: functional, cell-based
# CAL-148 = assay: cells; assay type: functional, cell-based; conditions: Homo sapiens
# Description: SANGER: Inhibition of human CAL-148 cell growth in a cell viability assay.
# EB-3 = assay: cells; assay type: functional, cell-based; conditions: Homo sapiens;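 note: human EB-3 cells, growth inhibition read out via a cell viability assay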
# Description: SANGER: Inhibition of human EB-3 cell growth in a cell viability assay.
# Calu-1 = assay: SANGER: Inhibition of human Calu-1 cell growth in a cell viability assay.; assay type: functional, cell-based
smiles,measurement,setting,value
COc1ccc(-c2ccc3c(N4CCOC[C@@H]4C)nc(N4CCOC[C@@H]4C)nc3n2)cc1CO [AZD-8055],pIC50,H-EMC-SS,< 5.70
same,pIC50,CHP-134,5.86
same,pIC50,LU-135,< 5.70
same,pIC50,ECC10,6.46
same,pIC50,H9,7.17
same,pIC50,D-423MG,5.99
same,pIC50,SJRH30,< 5.70
same,pIC50,NBsusSR,6.77
same,pIC50,BALL-1,< 5.70
same,pIC50,NCI-H630,< 5.70
O=c1cc(-c2cccc3c2Sc2ccccc2S3)oc(N2CCOCC2)c1 [KU-55933],pIC50,H-EMC-SS,< 5.00
same,pIC50,CHP-134,< 5.00
same,pIC50,LU-135,< 5.00
same,pIC50,D-423MG,< 5.00
same,pIC50,SJRH30,< 5.00
same,pIC50,NCI-H2009,< 5.00
same,pIC50,NBsusSR,< 5.00
same,pIC50,BALL-1,< 5.00
same,pIC50,NCI-H630,< 5.00
COc1ccc(C2=N[C@@H](c3ccc(Cl)cc3)[C@@H](c3ccc(Cl)cc3)N2C(=O)N2CCNC(=O)C2)c(OC(C)C)c1 [NUTLIN-3],pIC50,H-EMC-SS,5.19
same,pIC50,CHP-134,5.53
same,pIC50,LU-135,< 5.10
same,pIC50,ECC10,< 5.10
same,pIC50,H9,< 5.10
same,pIC50,D-423MG,< 5.10
same,pIC50,SJRH30,< 5.10
same,pIC50,NBsusSR,< 5.10
same,pIC50,BALL-1,< 5.10
same,pIC50,NCI-H630,< 5.10
CN(c1ncccc1CNc1nc(Nc2ccc3c(c2)CC(=O)N3)ncc1C(F)(F)F)S(C)(=O)=O [PF-00562271],pIC50,PLC-PRF-5,< 5.59
same,pIC50,COLO 205,6.31
same,pIC50,SNU-16,< 5.59
same,pIC50,EFE-184,< 5.59
same,pIC50,COR-L279,< 5.59
same,pIC50,DG-75,< 5.59
same,pIC50,NCI-H1618,< 5.59
same,pIC50,TT,< 5.59
same,pIC50,C-4-II,< 5.59
same,pIC50,DV-90,< 5.59
same,pIC50,MFE-296,5.61
same,pIC50,DMS-53,< 5.59
same,pIC50,RT-4,< 5.59
same,pIC50,MDA-MB-468,5.72
same,pIC50,NCI-H64,< 5.59
same,pIC50,MES-SA,5.88
same,pIC50,MC-CAR,< 5.59
same,pIC50,LC4-1,< 5.59
same,pIC50,Caov-3 cell line,< 5.59
same,pIC50,SIMA,< 5.59
same,pIC50,SJRH30,< 5.59
same,pIC50,NCI-H2009,< 5.59
same,pIC50,HSC-4,< 5.59
same,pIC50,TUR,< 5.59
same,pIC50,IST-SL2,< 5.59
same,pIC50,MDA-MB-134-VI,< 5.59
same,pIC50,BOKU,< 5.59
same,pIC50,NCI-H889,< 5.59
same,pIC50,TE-15,< 5.59
same,pIC50,ST486,5.81
same,pIC50,NCI-H838,< 5.59
same,pIC50,CHP-126,< 5.59
same,pIC50,IPC-298,< 5.59
same,pIC50,LB647-SCLC,< 5.59
same,pIC50,SCC-3,< 5.59
same,pIC50,SR,< 5.59
same,pIC50,NCI-H322M,< 5.59
same,pIC50,NCI-H1734,< 5.59
same,pIC50,NCI-H2171,< 5.59
same,pIC50,SIG-M5,5.83
same,pIC50,EW-7,< 5.59
same,pIC50,SNG-M,< 5.59
same,pIC50,LOUCY,5.65
same,pIC50,CCF-STTG1,< 5.59
same,pIC50,SK-CO-1,< 5.59
same,pIC50,BC1 cell line,5.79
same,pIC50,NCI-H630,< 5.59
same,pIC50,CAL-148,< 5.59
same,pIC50,EB-3,< 5.59
same,pIC50,Calu-1,< 5.59
CCC1=C[C@@H]2CN(C1)Cc1c([nH]c3ccccc13)[C@@](C(=O)OC)(c1cc3c(cc1OC)N(C)[C@H]1[C@@](O)(C(=O)OC)[C@H](OC(C)=O)[C@]4(CC)C=CCN5CC[C@]31[C@@H]54)C2 [VINORELBINE],pIC50,PLC-PRF-5,< 7.19
same,pIC50,COLO 205,8.86
same,pIC50,SNU-16,7.41
same,pIC50,EFE-184,< 7.19
same,pIC50,COR-L279,< 7.19
same,pIC50,DG-75,< 7.19
same,pIC50,NCI-H1618,< 7.19
same,pIC50,TT,< 7.19
same,pIC50,C-4-II,7.64
same,pIC50,DV-90,7.46
same,pIC50,MFE-296,8.22
same,pIC50,DMS-53,< 7.19
same,pIC50,RT-4,< 7.19
same,pIC50,MDA-MB-468,8.15
same,pIC50,NCI-H64,8.14
same,pIC50,MES-SA,8.51
same,pIC50,MC-CAR,8.03
same,pIC50,LC4-1,8.14
same,pIC50,Caov-3 cell line,< 7.19
same,pIC50,SIMA,< 7.19
same,pIC50,SJRH30,7.53
same,pIC50,NCI-H2009,8.07
same,pIC50,HSC-4,< 7.19
same,pIC50,TUR,8.14
same,pIC50,IST-SL2,7.77
same,pIC50,MDA-MB-134-VI,< 7.19
same,pIC50,BOKU,< 7.19
same,pIC50,NCI-H889,7.39
same,pIC50,TE-15,8.51
same,pIC50,ST486,8.53
same,pIC50,NCI-H838,7.79
same,pIC50,CHP-126,< 7.19
same,pIC50,IPC-298,7.44
same,pIC50,LB647-SCLC,8.16
same,pIC50,SCC-3,< 7.19
same,pIC50,SR,8.23
same,pIC50,NCI-H322M,< 7.19
same,pIC50,NCI-H1734,7.85
same,pIC50,NCI-H2171,< 7.19
same,pIC50,SIG-M5,8.61
same,pIC50,EW-7,7.78
same,pIC50,SNG-M,8.41
same,pIC50,LOUCY,8.01
same,pIC50,CCF-STTG1,8.08
same,pIC50,SK-CO-1,8.07
same,pIC50,BC1 cell line,8.03
same,pIC50,NCI-H630,7.34
same,pIC50,CAL-148,7.81
same,pIC50,EB-3,< 7.19
same,pIC50,Calu-1,< 7.19
